# Assay results as given in patent US20130344026A1, “Dimeric Smac Mimetics” (priority 2009, published 2013).
# Like-named read-outs stand apart in the source and are kept apart here.
# System: HCC461
# Test: cell viability assay in HCC461, compound alone
# Format: cell-based
# [1] = HCC461, HCC461 cells, compound alone, read-out: IC50 (uM) in cell viability assay in HCC461
# [2] = HCC461, HCC461, Tables 15-18, read-out: IC50 (uM) in cell viability assay in HCC461
# [3] = HCC461, HCC461, Tables 6-9, read-out: IC50 (μM) in cell viability assay in HCC461
SMILES,IC50 [1] [µM],IC50 [2] [µM],other results
CN[C@@H](C)C(=O)N[C@H]1CC#CC#CC[C@H](NC(=O)[C@H](C)NC)C(C)N2C[C@H](C[C@H]2C(=O)N[C@@H]2CCCc3ccccc32)NC(=O)c2ccc(cc2)C(=O)N[C@H]2C[C@@H](C(=O)N[C@@H]3CCCc4ccccc43)N(C2)C1C (stereo partly drawn) [Compound P3-8],0.081,–,–
CN[C@@H](C)C(=O)N[C@@H](CCCCNC(=O)c1cc(C(=O)NCCCC[C@H](NC(=O)[C@H](C)NC)C(=O)N2CCC[C@H]2C(=O)NC(c2ccccc2)c2ccccc2)[nH]n1)C(=O)N1CCC[C@H]1C(=O)NC(c1ccccc1)c1ccccc1 [Compound P2-31],–,0.268,–
CN[C@@H](C)C(=O)N[C@H](C(=O)N1C[C@@H](NC(=O)c2cc(N)cc(C(=O)N[C@H]3C[C@@H](C(=O)NC4c5ccccc5-c5ccccc54)N(C(=O)[C@@H](NC(=O)[C@H](C)NC)C(C)(C)C)C3)c2)C[C@H]1C(=O)NC1c2ccccc2-c2ccccc21)C(C)(C)C [Compound P3-61],0.02,–,–
CN[C@@H](C)C(=O)N[C@H](C(=O)N[C@H]1C[C@@H](C(=O)N[C@@H]2CCCc3ccccc32)N(C(=O)[C@@H](NC(=O)[C@H](C)NC)C(C)(C)C)C1)C(C)(C)C [Compound 145],–,–,IC50 [3]: > 30 µM
CN[C@@H](C)C(=O)N[C@H](C(=O)N1CCC[C@H]1C(=O)N[C@H](CNC(=O)c1ccc(C(=O)NC[C@@H](NC(=O)[C@@H]2CCCN2C(=O)[C@@H](NC(=O)[C@H](C)NC)C(C)(C)C)c2ccccc2)cc1)c1ccccc1)C(C)(C)C [Compound P4-12],–,0.038,–
CN[C@@H](C)C(=O)N[C@H](C(=O)N1C[C@@H](NC(=O)c2cccc(C(=O)N[C@H]3C[C@@H](C(=O)N[C@@H]4CCCc5ccccc54)N(C(=O)[C@@H](NC(=O)[C@H](C)NC)C(C)(C)C)C3)c2)C[C@H]1C(=O)N[C@H](C)C(C)C)C(C)C [Compound 133],–,–,IC50 [3]: 0.016 µM
CN[C@@H](C)C(=O)NC(C(=O)N1CCC[C@H]1C(=O)NC1CCCc2ccccc21)c1ccc(-c2ccc(C(NC(=O)[C@H](C)NC)C(=O)N3CCC[C@H]3C(=O)NC3CCCc4ccccc43)cc2)cc1 (stereo partly drawn) [Compound P2-2],–,0.098,–
C#CC[C@H](NC(=O)[C@H](C)NC)C(=O)N1C[C@@H](NC(=O)c2cnc(C(=O)N[C@H]3C[C@@H](C(=O)N[C@@H]4CCCc5ccccc54)N(C(=O)[C@H](CC#C)NC(=O)[C@H](C)NC)C3)cn2)C[C@H]1C(=O)N[C@@H]1CCCc2ccccc21 [Compound P3-14],0.023,–,–
CN[C@@H](C)C(=O)N[C@H](C(=O)N1C[C@@H](NC(=O)c2cc(N)cc(C(=O)N[C@H]3C[C@@H](C(=O)N[C@H](C)c4ccccc4)N(C(=O)[C@@H](NC(=O)[C@H](C)NC)C(C)(C)C)C3)c2)C[C@H]1C(=O)N[C@H](C)c1ccccc1)C(C)(C)C [Compound P3-52],0.044,–,–
CCN[C@@H](C)C(=O)C[C@H](C(=O)N1CCC[C@H]1C(=O)N[C@@H]1CCCc2ccccc21)c1ccc(C#CCO[C@H](C)[C@H](NC(=O)[C@H](C)NC)C(=O)N2CCC[C@H]2C(=O)N[C@@H]2CCCc3ccccc32)cc1 [Compound H-1],–,0.0171,–
CC[C@H](C)C(NC(=O)[C@H](C)NC)C(=O)N1C[C@@H](NC(=O)c2cccc(C(=O)N[C@H]3C[C@@H](C(=O)N(C)[C@H](C)c4ccccc4)N(C(=O)C(NC(=O)[C@H](C)NC)[C@@H](C)CC)C3)c2)C[C@H]1C(=O)N(C)C(C)c1ccccc1 (stereo partly drawn) [Compound P3-68],0.025,–,–
CN[C@@H](C)C(=O)N[C@@H](COCC#CC#CCOC[C@H](NC(=O)[C@H](C)NC)C(=O)N1CCCC1C(=O)N[C@@H]1CCCc2ccccc21)C(=O)N1CCCC1C(=O)N[C@@H]1CCCc2ccccc21 (stereo partly drawn) [Compound P2-19],–,0.025,–
CN[C@@H](C)C(=O)NC(C(=O)N1C[C@@H](NC(=O)c2cccc(C(=O)NCCCC[C@H](NC(=O)C(NC(C)[C@H](C)NC)C(C)(C)C)C(=O)N3CCCCC3)c2)C[C@H]1C(=O)N[C@@H]1CCCc2ccccc21)C(C)(C)C (stereo partly drawn) [Compound 152],–,–,IC50 [3]: 0.447 µM
CN[C@@H](C)C(=O)N[C@@H](CCCCNC(=O)c1ccc(C(=O)NCCCC[C@H](NC(=O)[C@H](C)NC)C(=O)N2CCC[C@H]2C(=O)NC(c2ccccc2)c2ccccc2)cc1)C(=O)N1CCC[C@H]1C(=O)NC(c1ccccc1)c1ccccc1 [Compound P2-30],–,0.189,–
CN[C@@H](C)C(=O)N[C@H](C(=O)N1C[C@@H](NC(=O)c2cccc(C(=O)N[C@H]3C[C@@H](C(=O)N[C@H](C)c4ccccc4)N(C(=O)[C@@H](NC(=O)[C@H](C)NC)C4CCCCC4)C3)c2)C[C@H]1C(=O)N[C@H](C)c1ccccc1)C1CCCCC1 [Compound P3-77],0.014,–,–
